According to patent publication US5328834A, “Method for preparing immunoglobulin fragments” (UniSyn Technologies, Inc., priority 1989, dated 1994):
*1 amine or outer side, *2 acyl side, *3 side chain or, on linkers, in order; H or OH if unused. Where a SMILES comes first, the peptide text is derived from it. CO = O=C([*:1])[*:2]

B1: Papain: soluble protease from Sigma used to digest IgG to F(ab) (protein, UniProt P00784 134-345, looked up)
Papain: IPEYVDWRQKGAVTPVKNQGSCGSCWAFSAVVTIEGIIKIRTGNLNEYSEQELLDCDRRSYGCNGGYPWSALQLVAQYGIHYRNTYPYEGVQRYCRSREKGPYAAKTDGVRQVQPYNEGALLYSIANQPVSVVLEAAGKDFQLYRGGIFVGPCGNKVDHAVAAVGYGPNYILIKNSWGTGWGENGYIRIKRGTGNSYGVCGLYTSSFYPVKN

Assays:
papain = target: T1, papain (Carica papaya, UniProt P00784); test: Inhibition of papain esterolytic activity by antipain and leupeptin (BAEE substrate, pH stat); assay type: biochemical; details: for effect of the presence of IgG substrate on inhibitory activity: 10 mg of human IgG present; for time to inhibit 100% of papain activity: inhibitor 0.4 mg/ml; for Time: time to the stated inhibition
T1 construct: purchased Sigma Chemical Company (St. Louis, Mo.)
T1 sequence (P00784 134-345): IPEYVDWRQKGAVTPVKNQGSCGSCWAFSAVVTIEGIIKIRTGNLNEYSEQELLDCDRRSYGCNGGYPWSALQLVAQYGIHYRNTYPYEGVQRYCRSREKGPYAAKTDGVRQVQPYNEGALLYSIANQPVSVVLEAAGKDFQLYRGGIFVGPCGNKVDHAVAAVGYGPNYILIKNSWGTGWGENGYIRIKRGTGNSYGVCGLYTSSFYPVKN
Method: (§1) Papain activity was assayed using N-benzoyl-L-arginine ethyl ester in a pH stat and pepsin activity using hemoglobin substrate, according to the procedures given in the Worthington Enzyme Manual.
The ability of antipain and leupeptin to modify papain activity was checked with enzyme, both in the absence and in the presence of immunoglobulin substrate. A 0.5 mg aliquot of active papain was made up in the presence and in the absence of 10 mg of human IgG in 0.025M sodium phosphate buffer containing 10 mM EDTA and 50 mM cysteine (pH 6.2). To each sample, different amounts of either antipain or leupeptin were added and then incubated at 23° C. for 5 minutes. An aliquot of this enzyme was diluted in the same buffer and assayed for papain activity using BAEE as the substrate in the pH stat.

[1] = Papain activity assay using N-benzoyl-L-arginine ethyl ester in a pH stat; assay type: biochemical; details: BAEE substrate
Method: as §1

human IgG = test: Digestion of IgG to F(ab) by papain; assay type: biochemical
Method: Typically, 10 mg of IgG in the papain digestion buffer (0,025M sodium phosphate, 10 mM EDTA, 50 mM cysteine, pH 6.2) was added to either 0.5 ml of activated immobilized papain (0.5 mg equivalent of free papain) or 0.5 mg of activated soluble papain in the digestion buffer. The proteolytic cleavage was carried out for various time intervals at 37° C. At the end of each incubation period, the immobilized papain sample was centrifuged to remove the protease and the supernatant transferred to another tube containing 0.5 ml of pH 8.5 buffer. The gel was washed once with 1 ml of pH 8.5 buffer and supernatants combined. In the case of soluble papain, 0.4 mg of antipain or leupeptin in water was added to inactivate the papain and the mixture diluted with 0.5 ml of pH 8.5 buffer.
The separation of inactivated papain from the rest of mixture was carried by one of two methods. According to one procedure, an excess of anti-papain IgG (3 mg) was added to complex with the inactivated papain and the Fab fragments were separated from the rest of the mixture by passing through a 1 ml protein A cartridge equilibrated with pH 8.5 buffer. This procedure removed both the protease and its antibody in the form of antigen-antibody complexes. The column was eluted with 5 ml of pH 8.5 buffer to collect the F(ab) fragments and the absorbance of the various fractions was read at 280 nm. In an alternative procedure, the reaction mixture was first passed through an immobilized column of antipapain IgG to remove the inactivated papain and then passed through a 1 ml protein A cartridge equilibrated with pH 8.5 buffer. The Fc and the undigested immunoglobulins were eluted from the protein A cartridge with an elution buffer (pH 3.5).
After 30 minutes incubation at 37° C., 0.4 mg of antipain was added to inactivate the enzyme and then 0.5 ml of pH 8.5 buffer added to the mixture. […] The effluent was passed through a protein A column to adsorb the Fc and the undigested IgG. The F(ab) fragments came out unabsorbed from the protein A column. […]

avidin-agarose = test: Binding of biotinylated papain to avidin-agarose column; details: 0.5 mg through a 1 ml column, pH 8.5 buffer
Excerpt: The column was eluted with a pH 8.5 buffer and the absorbance of the eluting fractions were monitored at 280 nm.

[2] = read-out: inhibition of papain activity
[3] = PAPAIN (0.5 mg) + IgG (10 mg), inhibitor 0.4 mg
[4] = PAPAIN (0.5 mg), inhibitor 0.2 mg
[5] = PAPAIN (0.5 mg), inhibitor 0.4 mg

Molecule	effect of the presence of IgG substrate on inhibitory activity (papain)	time to achieve 100% inhibition of papain activity (papain; inhibitor 0.05 mg/ml)	time to inhibit 100% of papain activity (papain)	inhibition at 50 µg/mL (papain; [2])	inhibition at 400 µg/mL (papain; [2])	Time (papain; PAPAIN (0.5 mg) + IgG (10 mg), inhibitor 0.05 mg)	Time (papain; PAPAIN (0.5 mg) + IgG (10 mg), inhibitor 0.1 mg)	Time (papain; [3])	Time (papain; PAPAIN (0.5 mg), inhibitor 0.05 mg)	Time (papain; PAPAIN (0.5 mg), inhibitor 0.1 mg)	Time (papain; [4])	Time (papain; [5])	Time (papain; PAPAIN (0.5 mg) + IgG (10 mg), inhibitor 0.2 mg)	Activity (Unit/mg) [1]	% Fab Generated (human IgG; 10 mg IgG, 0.5 mg enzyme, 37° C., 30 minutes)	amount of F(ab) obtained relative to the immobilized form of the enzyme (human IgG; first 30 minutes)	digestion of the total IgG added to F(ab) (human IgG; human IgG, within the first 30 minutes, 37° C.)	% Binding to Avidin-Agarose (avidin-agarose)
CC(C)[C@H](NC(=O)[C@H](CCCNC(=N)N)NC(=O)N[C@@H](Cc1ccccc1)C(=O)O)C(=O)N[C@H](C=O)CCCNC(=N)N [ANTIPAIN, Antipain] ({Phe-CO}-Arg-Val-Arg-aldehyde)	did not affect	≤ 15 min	≤ 1 min	100%	100%	15 min	4 min	1 min	15 min	4 min	1 min	1 min	–	–	–	–	–	–
CC(=O)N[C@@H](CC(C)C)C(=O)N[C@@H](CC(C)C)C(=O)N[C@H](C=O)CCCNC(=N)N [LEUPEPTIN, Leupeptin]	did not affect	–	≤ 1 min	–	100%	–	–	< 1 min	–	–	< 1 min	< 1 min	< 1 min	–	–	–	–	–
B1	–	–	–	–	–	–	–	–	–	–	–	–	–	7.8 Unit/mg	75%	double	75%	0%
